Assay results: ChEMBL document CHEMBL5728138, “Triazolo-pyrimidine compounds and uses thereof” (2020)

Columns and labels:
Adenosine receptor A2a [1] = target: Adenosine receptor A2a (Homo sapiens, UniProt P29274); experiment: Binding Affinities to Different Adenosine Receptors: The compounds at different concentrations were incubate with hA1 membrane (from PerkinElmer) and [3H]-8-Cyclopentyl-1,3-dipropylxanthine (DPCPX) for 50 min at 25° C., meanwhile 100 μL 0.5% PEI solution was added into […]-96 GF/B filter plate for 60 min at 4° C., then […]-96 GF/B filter plate was washed twice with 50 ml wash buffer, the membrane mix was transferred into […]-96 GF/B filter plate, and the filter plate was washed 4 times before incubated at 55° C. for 10 min. At last, […] ULTIMA GOLD was added into each well, and CPM was read by TopCount.The compounds at different concentrations were incubate with hA2a membrane (from PerkinElmer) and [3H]-CGS21680 for 90 min at 25° C., meanwhile 100 μL 0.5% PEI solution was added into […]-96 GF/B filter plate for 60 min at 4° C., then […]-96 GF/B filter plate was washed twice with 50 ml wash buffer, the membrane mix was transferred into […]-96 GF/B filter plate, and the filter plate was washed 4 times before incubated at 55° C. for 10 min. At last, […] ULTIMA GOLD was added into each well, and CPM was read by TopCount.The compounds at different concentrations were incubate with hA2b membrane (from PerkinElmer) and [3H]-DPCPX for 60 min at 27° C., and the binding reactions were stopped by rapid filtration through 0.5% BSA coated […]-96 GF/C plates using cell harvester. […]
Sequence of Adenosine receptor A2a (Homo sapiens, UniProt P29274) (P29274 whole entry): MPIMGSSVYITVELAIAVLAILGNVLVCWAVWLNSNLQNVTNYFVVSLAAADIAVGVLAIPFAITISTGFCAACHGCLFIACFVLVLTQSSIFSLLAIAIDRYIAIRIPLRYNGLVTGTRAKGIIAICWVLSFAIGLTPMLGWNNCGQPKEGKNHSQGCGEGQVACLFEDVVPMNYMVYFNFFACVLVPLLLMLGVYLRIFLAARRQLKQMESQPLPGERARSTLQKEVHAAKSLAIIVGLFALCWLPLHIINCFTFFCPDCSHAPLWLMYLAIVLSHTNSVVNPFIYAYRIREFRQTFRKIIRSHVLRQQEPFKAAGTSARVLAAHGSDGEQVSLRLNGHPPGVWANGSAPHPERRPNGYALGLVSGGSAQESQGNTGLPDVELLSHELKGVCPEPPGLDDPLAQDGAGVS

Adenosine receptor A1 = target: T1, Adenosine receptor A1 (Homo sapiens, UniProt P30542); experiment: (§1) FLIPR and cAMP Inhibition Assay: hADORA1/CHO (hA1 expressing) cells (Genscript) were plated at 1×10^4 cells/well into 384-well polystyrene plates one day before starting the experiment. On the day of experiment, the supernatant was discard and replaced with 40 µL of dye (FLIPR calcium 5 Assay Kit) per well and the plates were incubated for 60 mins at 37° C. plus 5% CO2. Then testing compounds were added at different concentrations for FLIPR™ inhibition assay. After a 400 s incubation with compound, […] was added into the cells, and the signal was captured by FLIPR.hA2a/CHO, hA2b/CHO and mA2a/CHO (Genscript) were plated at 5×10^3 cells/well into 384-well polystyrene plates at the day of experiment. Compounds were pre-incubated with cells for 30 min at 37° C., 5% CO2. Then […] was added to the cells and incubated for 30 min at 37° C., 5% CO2. Detection reagent (CISBIO) was added and the plates were incubated for 60 min at room temperature. The signal was captured by Envision.
T1 sequence (P30542 whole entry): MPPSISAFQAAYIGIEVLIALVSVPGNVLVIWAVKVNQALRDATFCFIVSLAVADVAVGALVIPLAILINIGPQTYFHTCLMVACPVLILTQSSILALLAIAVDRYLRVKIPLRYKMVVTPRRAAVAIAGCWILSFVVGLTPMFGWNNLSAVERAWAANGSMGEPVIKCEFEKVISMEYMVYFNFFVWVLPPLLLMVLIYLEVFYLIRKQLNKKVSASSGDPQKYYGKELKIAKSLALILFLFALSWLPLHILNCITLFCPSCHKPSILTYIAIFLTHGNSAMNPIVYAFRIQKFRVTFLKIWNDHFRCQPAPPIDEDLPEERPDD

Adenosine receptor A2b = target: T2, Adenosine receptor A2b (Homo sapiens, UniProt P29275); experiment: as §1
T2 sequence (P29275 whole entry): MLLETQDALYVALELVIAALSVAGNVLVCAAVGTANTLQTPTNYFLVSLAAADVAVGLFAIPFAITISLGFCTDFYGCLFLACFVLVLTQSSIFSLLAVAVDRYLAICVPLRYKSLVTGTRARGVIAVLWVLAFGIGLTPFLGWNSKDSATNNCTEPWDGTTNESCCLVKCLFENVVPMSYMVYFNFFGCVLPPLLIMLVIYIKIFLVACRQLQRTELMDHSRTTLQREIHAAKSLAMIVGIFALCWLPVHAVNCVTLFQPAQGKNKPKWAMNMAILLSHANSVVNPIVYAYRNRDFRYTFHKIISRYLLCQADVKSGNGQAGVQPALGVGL

Adenosine receptor A2a [2] = target: Adenosine receptor A2a (Mus musculus, UniProt Q60613); experiment: as §1
Sequence of Adenosine receptor A2a (Mus musculus, UniProt Q60613) (Q60613 whole entry): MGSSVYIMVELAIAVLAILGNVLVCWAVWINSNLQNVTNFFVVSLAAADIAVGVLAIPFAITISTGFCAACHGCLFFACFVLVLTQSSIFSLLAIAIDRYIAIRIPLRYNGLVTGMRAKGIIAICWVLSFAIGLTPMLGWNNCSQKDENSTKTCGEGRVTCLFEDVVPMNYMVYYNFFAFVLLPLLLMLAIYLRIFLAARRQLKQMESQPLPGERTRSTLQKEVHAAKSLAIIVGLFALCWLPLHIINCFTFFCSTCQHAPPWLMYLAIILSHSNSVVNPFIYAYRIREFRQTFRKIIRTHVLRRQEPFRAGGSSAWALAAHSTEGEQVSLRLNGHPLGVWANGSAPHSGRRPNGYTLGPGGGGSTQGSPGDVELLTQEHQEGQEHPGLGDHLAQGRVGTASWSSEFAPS

| SMILES | IC50 (Adenosine receptor A2a [1]) | IC50 (Adenosine receptor A1) | IC50 (Adenosine receptor A2b) | IC50 (Adenosine receptor A2a [2]) |
| --- | --- | --- | --- | --- |
| Nc1nc(-n2ccnn2)c(-c2ccc3nccn3c2)c2nc(Cc3ncccc3F)nn12 | 0.103 µM | 0.779 µM | 1.11 µM | 0.17 µM |
| Cc1cnc2ccc(-c3c(N4CCOCC4)nc(N)n4nc(Cc5c(F)cccc5F)nc34)cn12 | 0.0002 µM | – | 0.0445 µM | 0.0029 µM |
